From patent publication US20240059658A1 (Emory University, priority 2019, published 2024)

Assays:
p53 = p53 induction / expression (Western blot); type: cell-based; conditions: words or +/− grades, key not given
Experimental: (§1) Cells were lysed in a buffer composed of 50 mM Tris, pH 7.6, 150 mM NaCl, 1% Nonidet P-40, 10 mM sodium phosphate, 10 mM NaF, 1 mM sodium orthovanadate, 2 mM phenylmethylsulfonyl fluoride (PMSF), […], 10 μg/mL leupeptin and 10 μg/mL pepstatin. After centrifugation, the clarified cell lysate was separated from the pellet of cell debris, and then incubated with 15 μL Protein G/Protein A-agarose and 1 μg of antibodies, overnight at 4° C. For the Western blot, the resulting cell lysates or immunoprecipitates were resolved by SDS-PAGE. They were then transferred to a nitrocellulose filter and probed with the specific antibodies as listed in the supplemental Materials section. Finally, proteins were visualized with a chemiluminescent detection system.

855 line = test: WST cytotoxicity assay, 855 line; type: cell-based; conditions: read-out: Cancer cell cytotoxicity IC50
Experimental: (§2) The cytotoxic effect of MX 69 and MX69 analogs on cancer cells was determined using the water-soluble tetrazolium salt (WST) assay. Briefly, cells cultured in 96-well microtiter plates were treated with different concentrations of AQ-101 for a 20-h period. WST (25 μg/well) was then added and incubation continued for an additional 4 h, after which optical density (OD) was read with a microplate reader (test wavelength of 450 nm; reference wavelength of 620 nm).

697 cell line = test: WST cytotoxicity assay, 697 cell line; type: cell-based; conditions: read-out: Cancer cell cytotoxicity IC50
Experimental: as §2

EU-1 = test: WST cytotoxicity assay, cancer cell EU-1; type: cell-based, human; conditions: Homo sapiens, EU-1, EU-1; no other cell line named in the cell; read-out: Cancer cell (EU-1) cytotoxicity IC50
In short: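 Pediatric ALL and NB lines grown in RPMI 1640 with 10% FBS at 37 °C, 5% CO2. Cells were exposed to a range of compound concentrations for 20 h, then WST (25 μg/well) was added for a further 4 h. OD read at 450 nm against a 620 nm reference.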

XIAP = XIAP inhibition / expression (Western blot); type: cell-based; conditions: MDM2 reduction
Experimental: as §1

MDM2 = molecular target: T1, MDM2 (Homo sapiens, UniProt Q00987); test: MDM2 reduction / expression (Western blot); type: cell-based; conditions: words or +/− grades, key not given
T1 construct: ubiquitination of endogenous MDM2 in EU-1 cells; endogenous in cells; host or cells: EU-1 (ALL) cells
Experimental: as §1

NB-1643 = test: WST cytotoxicity assay, NB-1643; type: cell-based; conditions: Homo sapiens; NB-1643 line; read-out: Cancer cell cytotoxicity IC50
Experimental: This study used two ALL cell lines (EU-1 and EU-3) and three NB cell lines (NB-1643, SHEP1 and LA1-55N). All 5 cancer cell lines were established from pediatric ALL or NB patients and were well-characterized for their expression of MDM2 and p53-status, as reported previously. All cell lines were grown in standard culture medium (RPMI 1640 containing 10% FBS, 2 mmol/L L-glutamine, 50 U penicillin and 50 μg/mL streptomycin) at 37° C. in a humidified atmosphere containing 5% CO2.
as §2

in vivo = conditions: mouse
MDM2 RING protein = MDM2 RING protein (Homo sapiens, UniProt Q00987); test: Compound-protein binding (ITC) to MDM2 RING protein; conditions: MDM2 RING domain
Experimental: Isothermal titration calorimetry (ITC) assay was performed using the auto-iTC200 instrument (MicroCal, GE). MDM2 protein was loaded into a 96 DeepWell PP plate, and then compound was titrated stepwise into the protein sample cell using a syringe, for a total of 16 injections (except for the first injection, which was 0.4 μl). The equilibrium time between two adjacent injections was 210 s. The binding stoichiometry (n), binding constant (Kd), and thermodynamic parameters (ΔH and ΔS) were determined by fitting the titration curve to a one-site binding mode, using the Origin software provided by the manufacturer.

T1 sequence (Q00987 whole entry): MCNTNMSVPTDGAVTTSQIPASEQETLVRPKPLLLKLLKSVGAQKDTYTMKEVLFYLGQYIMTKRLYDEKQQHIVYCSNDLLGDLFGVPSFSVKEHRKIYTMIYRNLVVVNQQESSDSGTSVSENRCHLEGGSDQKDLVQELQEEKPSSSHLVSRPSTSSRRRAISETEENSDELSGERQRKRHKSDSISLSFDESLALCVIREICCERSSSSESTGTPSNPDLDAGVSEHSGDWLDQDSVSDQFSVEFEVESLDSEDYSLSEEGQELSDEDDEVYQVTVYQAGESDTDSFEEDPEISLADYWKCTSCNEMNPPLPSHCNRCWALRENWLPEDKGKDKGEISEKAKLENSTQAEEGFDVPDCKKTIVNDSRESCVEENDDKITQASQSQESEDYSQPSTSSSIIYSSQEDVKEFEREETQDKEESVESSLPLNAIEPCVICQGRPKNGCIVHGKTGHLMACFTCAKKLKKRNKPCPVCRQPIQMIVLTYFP
Chain of MDM2 RING protein (Q00987 438-479 limits assumed): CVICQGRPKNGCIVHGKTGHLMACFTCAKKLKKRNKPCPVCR

## Cc1ccc(NS(=O)(=O)c2ccc3c(c2)C2OCC[C@H]2[C@H](C2CCN(C(=O)OC(C)(C)C)CC2)N3)cc1C (stereo partly shown) [Compound 69L64]
p53
  p53 induction: induction
855 line
  IC50: 1.35 µM
697 cell line
  IC50: 0.28 µM

## CC(=O)c1cccc(NS(=O)(=O)c2ccc3c(c2)C(=O)CC(c2ccc(C(=O)C(C)C)cc2)N3)c1 (stereo not shown) [Compound 69L113, N-(3-acetylphenyl)-2-(4-isobutyrylphenyl)-4-oxo-1,2,3,4-tetrahydro-quinoline-6-sulfonamide]
EU-1
  IC50: < 0.1 µM
XIAP
  XIAP inhibition: inhibition
MDM2
  MDM2 reduction: inhibition

## CC(=O)c1ccc(NS(=O)(=O)c2ccc3c(c2)[C@H]2OCC[C@H]2C(c2ccc(C(=O)C(C)C)cc2)N3)cc1 (stereo partly shown) [Compound 69L98, N-(4-acetylphenyl)-4-(4-isobutyrylphenyl)-2,3,3a,4,5,9b-hexahydrofuro[3,2-c]quinoline-8-sulfonamide]
EU-1
  IC50: 1.5 µM
p53
  p53 induction: induction
MDM2
  MDM2 reduction: inhibition

## O=S(=O)(Nc1ccc(Cl)c(Cl)c1)c1ccc2c(c1)C1OCC[C@H]1[C@H](C1CCCCC1)N2 (stereo partly shown) [Compound 69L60, 4-cyclohexyl-N-(3,4-dichlorophenyl)-2,3,3a,4,5,9b-hexahydrofuran[3,2-c]quinolone-8-sulfonamine]
NB-1643
  IC50: 5.65 µM
855 line
  IC50: 1.81 µM
697 cell line
  IC50: 2.73 µM
MDM2
  MDM2 reduction: Increase

## CC(=O)c1cccc(C2Nc3ccc(S(=O)(=O)Nc4ccc(C)c(C)c4)cc3C3OCC[C@@H]23)c1 (stereo in doubt) [Compound 69L93, 4-(3-acetylphenyl)-N-(3,4-dimethylphenyl)-2,3,3a,4,5,9b-hexahydrofuro[3,2-c]quinoline-8-sulfonamide]
EU-1
  IC50: 1.95 µM
p53
  p53 induction: induction
MDM2
  MDM2 reduction: inhibition

## Cc1ccc(NS(=O)(=O)c2ccc3c(c2)C2OCC[C@H]2C(c2ccc(C(O)C(C)C)cc2)N3)cc1C (stereo in doubt) [Compound 69L87, N-(3,4-dimethylphenyl)-4(4-(1-hydroxy-2-methylpropyl)phenyl)-2,3,3a,4,5,9b-hexahydrofuro[3,2-c]quinoline-8-sulfonamide]
EU-1
  IC50: 1.98 µM
p53
  p53 induction: inhibition
MDM2
  MDM2 reduction: inhibition

## O=S(=O)(Nc1ccc2c(c1)CCCC2)c1ccc2c(c1)C1OCC[C@H]1[C@H](C1CCCCC1)N2 (stereo partly shown) [Compound 69L59, 4-cyclohexyl-N-(5,6,7,8-tetrahydronaphthalen-2-yl)-2,3,3a,4,5,9b-hexahydrofuran[3,2-c]quinolone-8-sulfonamine]
NB-1643
  IC50: 3.09 µM
855 line
  IC50: 2.31 µM
MDM2
  MDM2 reduction: No MDM2

## CC(=O)c1ccc(C2CC(=O)c3cc(S(=O)(=O)Nc4ccc(C)c(C)c4)ccc3N2)cc1 (stereo not shown) [Compound 69L83, 2-(4-acetylphenyl)-N-(3,4-dimethylphenyl)-4-oxo-1,2,3,4-tetrahydroquinoline-6-sulfonamide]
EU-1
  IC50: 1.17 µM
p53
  p53 induction: inhibition
MDM2
  MDM2 reduction: inhibition

## Cc1ccc(NS(=O)(=O)c2ccc3c(c2)[C@H]2NCC[C@H]2[C@@H](c2ccc(C(=O)C(C)C)cc2)N3)cc1C [Compound 69L81]
EU-1
  IC50: 3.2 µM
XIAP
  XIAP inhibition: inhibition
p53
  p53 induction: inhibition
MDM2
  MDM2 reduction: inhibition

## Cc1ccc(NS(=O)(=O)c2ccc3c(c2)C2OCC[C@H]2C2(CCCCC2)N3)cc1C (stereo partly shown) [Compound 69L62]
NB-1643
  IC50: 1.3 µM
855 line
  IC50: 0.98 µM
697 cell line
  IC50: 0.49 µM
MDM2
  MDM2 reduction: No MDM2

## Cc1ccc(NS(=O)(=O)c2ccc3c(c2)C2OCC[C@H]2C(c2ccc(C(=O)C(C)C)cc2)N3)cc1C (stereo partly shown) [Compound 69L96]
EU-1
  IC50: 2.08 µM
MDM2
  MDM2 reduction: inhibition

## CC(=O)c1cccc(NS(=O)(=O)c2ccc3c(c2)[C@H]2OCC[C@H]2C(c2ccc(C(=O)C(C)C)cc2)N3)c1 (stereo in doubt) [Compound 69L102, N-(3-acetylphenyl)-4-(4-isobutyrylphenyl)-2,3,3a,4,5,9b-hexahydrofuro[3,2-c]quinoline-8-sulfonamide]
EU-1
  IC50: 0.23 µM
XIAP
  XIAP inhibition: inhibition
MDM2
  MDM2 reduction: inhibition

## CC(=O)c1cccc(NS(=O)(=O)c2ccc3c(c2)C(=O)CC(c2cccc(C(C)=O)c2)N3)c1 (stereo not shown) [Compound 69L121, N,2-bis(3-acetylphenyl)-4-oxo-1,2,3,4-tetrahydroquinoline-6-sulfonamide]
EU-1
  IC50: 0.18 µM
MDM2
  MDM2 reduction: inhibition

## Cc1ccc(NS(=O)(=O)c2ccc3c(c2)C2OCC[C@H]2C(c2cccc4ccccc24)N3)cc1C (stereo partly shown) [Compound 69L63]
p53
  p53 induction: induction
855 line
  IC50: 6.07 µM
697 cell line
  IC50: 3.94 µM

## COC(=O)c1ccc([C@H]2CC(O)c3cc(S(=O)(=O)Nc4ccc(C)c(C)c4)ccc3N2)cc1 (stereo partly shown) [Compound 69L39]
NB-1643
  IC50: 1.61 µM
855 line
  IC50: 0.68 µM
MDM2
  MDM2 reduction: No MDM2

## Cc1ccc(NS(=O)(=O)c2ccc3c(c2)C2OCC[C@H]2[C@H](C2CCOCC2)N3)cc1C (stereo partly shown) [Compound 69L58, N-(3,4-dimethylphenyl)-4-(tetrahydro-2H-pyran-4-yl)-2,3,3a,4,5,9b-hexahydrofuran[3,2-c]quinolone-8-sulfonamine]
NB-1643
  IC50: 2.63 µM
p53
  p53 induction: induction
855 line
  IC50: 1.61 µM
MDM2
  MDM2 reduction: inhibition

## Cc1ccc(NS(=O)(=O)c2ccc3c(c2)[C@H]2OCC[C@H]2C(c2ccc(C(=O)C4CCCCC4)cc2)N3)cc1C (stereo partly shown) [Compound 69L70]
EU-1
  IC50: 3.09 µM
MDM2
  MDM2 reduction: No MDM2

## CC(=O)c1ccc([C@@H]2Nc3ccc(S(=O)(=O)Nc4ccc(C)c(C)c4)cc3[C@H]3C=CC[C@H]32)cc1 [Compound 69L48]
EU-1
  IC50: 3.8 µM
MDM2
  MDM2 reduction: inhibition

## COC(=O)c1ccc(C2Nc3ccc(S(=O)(=O)Nc4ccc(C)c(C)c4)cc3[C@H]3OCC[C@@H]23)cc1 (stereo partly shown) [Compound 69L1]
In vivo
  MTD: 300 mg/kg
EU-1
  IC50: 1.5 to 6 µM

## Cc1ccc(NS(=O)(=O)c2ccc3c(c2)C2OCC[C@H]2[C@H](C2CCCCC2)N3)cc1C (stereo partly shown) [Compound 69L53, 4-cyclohexyl-N-(3,4-dimethylphenyl)-2,3,3a,4,5,9b-hexahydrofuran[3,2-c]quinolone-8-sulfonamine]
NB-1643
  IC50: 1.73 µM
MDM2 RING protein
  MDM2 binding affinity as compared with MX69: Increased MDM2 Binding Affinity
In vivo
  MTD: 300 mg/kg
p53
  p53 induction: induction
855 line
  IC50: 0.8 µM
MDM2
  MDM2 reduction: inhibition

## Cc1ccc(NS(=O)(=O)c2ccc3c(c2)C(=O)CC(c2cccc(C(=O)C(C)C)c2)N3)cc1C (stereo not shown) [Compound 69L114, N-(3,4-dimethylphenyl)-2-(3-isobutyrylphenyl)-4-oxo-1,2,3,4-tetrahydroquinoline-6-sulfonamide]
EU-1
  IC50: < 0.1 µM
XIAP
  XIAP inhibition: inhibition
MDM2
  MDM2 reduction: inhibition

## CC(C)C(=O)c1ccc(C2Nc3ccc(S(=O)(=O)N[C@H]4CC[C@H](C)CC4)cc3[C@H]3OCC[C@@H]23)cc1 (stereo partly shown) [Compound 69L78]
EU-1
  IC50: 3.67 µM
MDM2
  MDM2 reduction: No MDM2

## CC(=O)c1ccc(C2Nc3ccc(S(=O)(=O)Nc4ccc(C)c(C)c4)cc3[C@H]3OCC[C@@H]23)cc1 (stereo partly shown) [Compound 69L38]
NB-1643
  IC50: 1.82 µM
855 line
  IC50: 0.49 µM
MDM2
  MDM2 reduction: No MDM2

## Cc1ccc(NS(=O)(=O)c2ccc3c(c2)C(=O)C[C@@H](c2ccc(C(=O)C(C)C)cc2)N3)cc1C (stereo in doubt) [Compound 69L84, N-(3,4-dimethylphenyl)-2-(4-isobutyrylphenyl)-4-oxo-1,2,3,4-tetrahydroquinoline-6-sulfonamide]
EU-1
  IC50: 0.2 to 0.6 µM
XIAP
  XIAP inhibition: inhibition
p53
  p53 induction: activation
MDM2
  MDM2 reduction: inhibition

## CC(C)C(=O)c1ccc(C2Nc3ccc(S(=O)(=O)Nc4ccccc4)cc3[C@H]3OCC[C@@H]23)cc1 (stereo partly shown) [Compound 69L75]
EU-1
  IC50: 3.21 µM
MDM2
  MDM2 reduction: No MDM2
